Experimental findings from patent publication US20180317487A1, “METHOD OF CONTROLLING GROWTH OF ALS-TOLERANT PLANTS” (ROTAM AGROCHEM INTERNATIONAL COMPANY LIMITED, priority 2015, published 2018) are described below.

For assay [1], the system named is wild (non-tolerant) plants. Nature of the assay: Review of the spray test data, wild plants together. Particulars: review of the data of Tables 5 and 6. In kind it is in vivo. From the text: (§1) Seeds of normal wild variety and ALS-resistant variant of each of Stellaria media, Papaver rhoeas, Matricaria chamomilla and Matricaria inodora were sown in trays of peat-based compost placed in a glasshouse to allow germination. At the cotyledon stage, four evenly sized seedlings were transplanted into each of 9 cm diameter plastic pots containing loam soil mixed with 25% by volume horticultural silver sand and further blended with coarse grit in the ratio 3:1. The resulting potting medium was supplemented with Osmacote slow-release fertilizer (16:8:9+Mg) to provide 1.4 g per 0.35 L pot.
(§2) The formulations of each of Examples C1 to C11 and 1 to 16 were applied to the seedlings by spraying. Three replicate pots were used per treatment. Prior to spraying, the plants were watered overhead. To ensure the foliage was dry, water was not applied on the day of spraying, with the last overhead watering being the day before spraying. The herbicide formulations were made up with mains tap water. The laboratory track sprayer was set up with a Lurmark O1E80 Even spray nozzle to deliver 200±20 L/ha using gear 4 and a pressure of […] (30 psi). The application rates of the active ingredients are set out in Table 5 below.
(§3) Following spraying, the plants were returned to the glasshouse and the sprayed pots were arranged in three randomized blocks. The temperature of the glasshouse ranged from 12.2° C. to 16.1° C. by day and 10.9° C. to 13.3° C. at night. The relative humidity ranged from 75% to 101 %.
(§4) Throughout the experiment, the plants were watered to maintain the soil close to the field capacity. Following herbicide treatment, the plants were watered by sub-irrigation using individual plastic dishes for each pot to avoid any risk of cross contamination.
(§5) The visual percentage of control based on a 0-100 linear scale was assessed 21 days after treatment (DAT). The linear scale ranged from 0 (no effect) to 100 (dead plants).
(§6) In Table 6, ‘Obs’ indicates an observed result and ‘Exp’ indicates the result expected from applying the Colby equation, discussed above.

Assay [2] deals with ALS-tolerant plants. Nature of the assay: Review of the spray test data, ALS-tolerant plants together. In kind it is in vivo. Particulars: review of the data of Tables 5 and 6.
Excerpt: as §1, §2, §3, §4, §5, §6

`COc1nc(C)nc(NC(=O)NS(=O)(=O)c2cc(I)ccc2C(=O)O)n1` [Iodosulfuron]: the “damage to wild (non-tolerant) plants (in words)” value in assay [1] is “significantly damaging”. For the same compound, in assay [2], the “damage to / effect on ALS-tolerant plants (in words)” value (shortened to “damage to / effect”) is recorded as “little or no effect”.

Take `COc1nc(C)nc(N(C)C(=O)NS(=O)(=O)c2ccccc2C(=O)O)n1` [Tribenuron]: the “damage to wild (non-tolerant) plants (in words)” value in assay [1] was “significantly damaging”. Further, the “damage to / effect” value in assay [2] was “little or no effect”.

With `CSc1nnc(C(C)(C)C)c(=O)n1N` [metribuzin, 4-amino-6-tert-butyl-4,5-dihydro-3-methylthio-1,2,4-triazin-5-one], the “damage to wild (non-tolerant) plants (in words)” value in assay [1] is reported as “caused damage”. In addition, in assay [2], the “damage to / effect” value is listed as “caused damage”.

Consider `CCS(=O)(=O)c1cccnc1S(=O)(=O)NC(=O)Nc1nc(OC)cc(OC)n1` [Rimsulfuron], for which the “damage to wild (non-tolerant) plants (in words)” value in assay [1] was “significantly damaging”. The “damage to / effect” value in assay [2] is listed as “little or no effect”.

With `CCS(=O)(=O)c1nc2ccccn2c1S(=O)(=O)NC(=O)Nc1nc(OC)cc(OC)n1` [Sulfosulfuron], in assay [1], the “damage to wild (non-tolerant) plants (in words)” value was “significantly damaging”. Also, in assay [2], the “damage to / effect” value is “little or no effect”.

Take `COc1cc(OC)nc(NC(=O)NS(=O)(=O)c2ncccc2C(=O)N(C)C)n1` [Nicosulfuron]: in assay [1], the “damage to wild (non-tolerant) plants (in words)” value is “significantly damaging”. Besides, the “damage to / effect” value in assay [2] is “little or no effect”.

Regarding `COc1cc(OC)nc(NC(=O)NS(=O)(=O)c2cc(CNS(C)(=O)=O)ccc2C(=O)O)n1` [Mesosulfuron], the “damage to wild (non-tolerant) plants (in words)” value in assay [1] is reported as “significantly damaging”. For the same compound, the “damage to / effect” value in assay [2] is “little or no effect”.

Consider `COc1nc(C)nc(NC(=O)NS(=O)(=O)c2ccsc2C(=O)O)n1` [Thifensulfuron], for which the “damage to wild (non-tolerant) plants (in words)” value in assay [1] is reported as “significantly damaging”. In addition, in assay [2], the “damage to / effect” value was “little or no effect”.

With `COc1cc(OC)nc(NC(=O)NS(=O)(=O)c2c(C(=O)O)c(Cl)nn2C)n1` [Halosulfuron], the “damage to wild (non-tolerant) plants (in words)” value in assay [1] is on record as “significantly damaging”. The “damage to / effect” value in assay [2] is given as “little or no effect”.

With `COc1nc(C)nc(=NC(=O)NS(=O)(=O)c2ccccc2C(=O)O)[nH]1` [Metsulfuron], in assay [1], the “damage to wild (non-tolerant) plants (in words)” value is on record as “significantly damaging”. Further, in assay [2], the “damage to / effect” value is reported as “little or no effect”.

For the compound `COc1cc(OC)nc(NC(=O)NS(=O)(=O)N(C)S(C)(=O)=O)n1` [Amidosulfuron], the “damage to wild (non-tolerant) plants (in words)” value in assay [1] is “significantly damaging”. Besides, the “damage to / effect” value in assay [2] was “little or no effect”.
